The results in this text go back to patent US20260325533A1, “CDK INHIBITOR COMPOUNDS” (ALEKSIA THERAPEUTICS, INC., priority 2023, published 2026).

What all share (format): biochemical
In one assay the target is CDK2/CCNE1 (Homo sapiens, UniProt P24941). The assay is described as follows: CDK2 homogeneous time-resolved fluorescence (HTRF) kinase assay. The note with it: CDK2/CCNE. Summed up:
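IC50 derived from 11-point, half-log dilutions (usually top 10 μM) of compound, 1% DMSO. Kinase (3 nM CDK2/CCNE1) was preincubated with compound 20 min, then phosphorylated 50 nM ULight-4E-BP1 peptide at 1 mM ATP for 60 min, 23 °C. Europium-antibody TR-FRET read after EDTA stop.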
On the technique in general: In TR-FRET formats the signal depends on donor and acceptor labels being close together.

The target of the next assay is CDK1/CCNB1 (Homo sapiens, UniProt P06493). The assay is described as follows: CDK1 homogeneous time-resolved fluorescence (HTRF) kinase assay. As to conditions: CDK1/CCNB. Summed up:
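0.5 nM CDK1/CCNB1 was preincubated 20 min at 23 °C with compound in HEPES pH-unspecified buffer (MgCl2, EGTA, DTT, Tween 20), then reacted 60 min with 1 mM ATP and 50 nM ULight-4E-BP1 (Thr37/46) peptide. EDTA-stopped reactions were detected with 2 nM Eu-anti-phospho antibody; IC50 from 11-point half-log titrations.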

A further assay has as its target CDK4/CCND3 (Homo sapiens, UniProt P11802). The assay is described as follows: CDK4 homogeneous time-resolved fluorescence (HTRF) kinase assay. The note with it: CDK4/CCND. In outline:
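IC50s derive from Lance 665 nm or 665/615 nm signals in 11-point, half-log dose series (top 10 μM, 1% DMSO). The enzyme, 1.5 nM CDK4/CCND3, phosphorylates 50 nM ULight-4E-BP1 peptide with 1 mM ATP over 60 min at 23 °C.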

The target in another assay is CDK6/CCND1 (Homo sapiens, UniProt Q00534). The assay is described as follows: CDK6 homogeneous time-resolved fluorescence (HTRF) kinase assay. As to conditions: CDK6/CCND. Summed up:
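Assay conditions: HEPES buffer containing 10 mM MgCl2, 1 mM EGTA, 2 mM DTT, 0.01% Tween 20; 1 nM CDK6/CCND1, 50 nM peptide substrate, 1 mM ATP. Detection after 60 min reaction used 2 nM europium antibody with 340 nm excitation. Potency fitted from half-log series, 11 points.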

[1] abbreviates: x = IC50 <25 nM, read-out: CDK2/CCNE IC50 (<25 nM).
The mark [2] stands for this setting: x = IC50 >250 nM, read-out: CDK1/CCNB IC50 (>250 nM column).
Where [3] appears, read: x = IC50 >250 nM, read-out: CDK4/CCND IC50 (>250 nM column).
[4] abbreviates: x = IC50 >250 nM, read-out: CDK6/CCND IC50 (>250 nM column).
The mark [5] stands for this setting: x = IC50 25-250 nM, read-out: CDK2/CCNE IC50 (25-250 nM).
The mark [6] stands for this setting: x = IC50 25-250 nM, read-out: CDK4/CCND IC50 (25-250 nM).

Read-outs that look alike come from different tables or passages of the source.

Chain of CDK6/CCND1 (Q00534 whole entry): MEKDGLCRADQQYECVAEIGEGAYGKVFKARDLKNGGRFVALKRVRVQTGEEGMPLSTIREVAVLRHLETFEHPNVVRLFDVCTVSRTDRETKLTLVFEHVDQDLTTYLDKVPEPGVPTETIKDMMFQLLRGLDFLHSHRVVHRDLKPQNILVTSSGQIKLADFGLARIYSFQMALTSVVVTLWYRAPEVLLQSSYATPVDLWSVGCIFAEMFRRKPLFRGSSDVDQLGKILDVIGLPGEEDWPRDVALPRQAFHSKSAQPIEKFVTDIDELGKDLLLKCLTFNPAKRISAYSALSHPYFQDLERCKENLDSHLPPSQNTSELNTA
Chain of CDK6/CCND1 (P24385 whole entry partner): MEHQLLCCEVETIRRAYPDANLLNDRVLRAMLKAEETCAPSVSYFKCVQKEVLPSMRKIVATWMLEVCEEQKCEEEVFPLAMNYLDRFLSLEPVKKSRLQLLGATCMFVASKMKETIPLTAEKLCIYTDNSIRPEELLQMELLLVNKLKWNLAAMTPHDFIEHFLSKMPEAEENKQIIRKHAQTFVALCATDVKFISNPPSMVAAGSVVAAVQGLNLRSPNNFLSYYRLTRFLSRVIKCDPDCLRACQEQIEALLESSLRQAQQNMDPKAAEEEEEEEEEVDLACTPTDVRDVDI
Chain of CDK1/CCNB1 (P06493 whole entry): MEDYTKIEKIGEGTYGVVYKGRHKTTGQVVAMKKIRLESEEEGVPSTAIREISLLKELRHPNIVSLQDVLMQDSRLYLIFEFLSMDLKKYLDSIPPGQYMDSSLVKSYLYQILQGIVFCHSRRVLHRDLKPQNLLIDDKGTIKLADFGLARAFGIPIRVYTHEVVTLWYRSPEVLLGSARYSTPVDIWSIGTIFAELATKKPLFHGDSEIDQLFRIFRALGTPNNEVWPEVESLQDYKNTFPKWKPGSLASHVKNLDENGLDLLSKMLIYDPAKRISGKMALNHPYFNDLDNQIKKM
Chain of CDK1/CCNB1 (P14635 whole entry partner): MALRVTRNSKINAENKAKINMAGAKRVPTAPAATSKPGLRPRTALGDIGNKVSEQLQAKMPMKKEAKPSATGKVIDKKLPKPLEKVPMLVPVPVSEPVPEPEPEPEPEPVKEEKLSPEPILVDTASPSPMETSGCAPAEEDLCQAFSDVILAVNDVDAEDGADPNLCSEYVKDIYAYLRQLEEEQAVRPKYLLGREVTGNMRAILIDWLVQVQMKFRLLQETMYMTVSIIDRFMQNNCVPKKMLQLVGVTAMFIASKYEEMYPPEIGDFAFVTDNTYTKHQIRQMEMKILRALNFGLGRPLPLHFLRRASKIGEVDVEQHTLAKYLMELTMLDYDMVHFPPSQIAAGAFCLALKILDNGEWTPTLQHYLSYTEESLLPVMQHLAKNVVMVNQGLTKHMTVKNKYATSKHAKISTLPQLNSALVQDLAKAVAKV
Chain of CDK4/CCND3 (P11802 whole entry): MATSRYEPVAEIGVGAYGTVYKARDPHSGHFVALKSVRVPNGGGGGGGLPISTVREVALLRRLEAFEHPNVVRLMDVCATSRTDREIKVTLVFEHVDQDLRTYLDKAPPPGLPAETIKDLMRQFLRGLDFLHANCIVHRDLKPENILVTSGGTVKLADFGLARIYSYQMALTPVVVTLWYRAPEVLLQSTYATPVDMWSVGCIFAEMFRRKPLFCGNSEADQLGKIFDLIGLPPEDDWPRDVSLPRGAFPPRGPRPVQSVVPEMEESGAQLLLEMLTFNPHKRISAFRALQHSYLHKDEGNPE
Chain of CDK4/CCND3 (P30281 whole entry partner): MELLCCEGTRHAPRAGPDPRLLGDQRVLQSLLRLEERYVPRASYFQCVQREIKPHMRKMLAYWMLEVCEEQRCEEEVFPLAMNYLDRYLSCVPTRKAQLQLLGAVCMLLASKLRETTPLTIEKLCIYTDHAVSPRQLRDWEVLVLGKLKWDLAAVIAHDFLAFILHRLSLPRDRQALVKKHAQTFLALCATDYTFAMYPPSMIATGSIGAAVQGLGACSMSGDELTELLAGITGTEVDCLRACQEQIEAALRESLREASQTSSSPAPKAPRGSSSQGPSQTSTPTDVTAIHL

With `CC(=O)Nc1ccc(C#Cc2nccc3cnc(Nc4ccc(S(C)(=O)=O)cc4)cc23)cc1` [Ex 631, N-(4-((7-((4-(methylsulfonyl)phenyl)amino)-2,6-naphthyridin-1-yl)ethynyl)phenyl)acetamide], the IC50 on CDK2/CCNE1 (setting [1]) was below 0.025 µM; on CDK1/CCNB1 (setting [2]), above 0.25 µM; on CDK4/CCND3 (setting [3]) it was above 0.25 µM; at CDK6/CCND1 (setting [4]), above 0.25 µM.

Regarding `CS(=O)(=O)c1ccc(Nc2cc3c(C#Cc4cnc(N)nc4)nccc3cn2)cc1` [Ex 633, 5-((2-aminopyrimidin-5-yl)ethynyl)-N-(4-(methylsulfonyl)phenyl)-2,6-naphthyridin-3-amine], the IC50 was 0.025 to 0.25 µM at CDK2/CCNE1 (setting [5]), above 0.25 µM on CDK1/CCNB1 (setting [2]), above 0.25 µM on CDK4/CCND3 (setting [3]) and above 0.25 µM at CDK6/CCND1 (setting [4]).

In the case of `CNC(=O)c1ccc(C#Cc2nccc3cnc(Nc4ccc(S(C)(=O)=O)cc4)cc23)cc1` [Ex 634, N-methyl-4-((7-((4-(methylsulfonyl)phenyl)amino)-2,6-naphthyridin-1-yl)ethynyl)benzamide], the IC50 at CDK2/CCNE1 (setting [1]) was below 0.025 µM; at CDK1/CCNB1 (setting [2]), above 0.25 µM; on CDK4/CCND3 (setting [3]), above 0.25 µM; at CDK6/CCND1 (setting [4]), above 0.25 µM.

For `CS(=O)(=O)c1ccc(Nc2cc3c(C#Cc4cnn(C5CC5)c4)nccc3cn2)cc1` [Ex 635, 5-((1-cyclopropyl-1H-pyrazol-4-yl)ethynyl)-N-(4-(methylsulfonyl)phenyl)-2,6-naphthyridin-3-amine], the IC50 on CDK2/CCNE1 (setting [5]) was 0.025 to 0.25 µM; at CDK1/CCNB1 (setting [2]), above 0.25 µM; on CDK4/CCND3 (setting [3]) it was above 0.25 µM; on CDK6/CCND1 (setting [4]) it was above 0.25 µM.

For the molecule `CS(=O)(=O)c1ccc(Nc2cc3c(C#Cc4ccc(OC(F)F)cc4)nccc3cn2)cc1` [Ex 636, 5-((4-(difluoromethoxy)phenyl)ethynyl)-N-(4-(methylsulfonyl)phenyl)-2,6-naphthyridin-3-amine], the IC50 on CDK2/CCNE1 (setting [5]) is 0.025 to 0.25 µM; on CDK1/CCNB1 (setting [2]), above 0.25 µM; on CDK4/CCND3 (setting [3]), above 0.25 µM; at CDK6/CCND1 (setting [4]), above 0.25 µM.

As to `Cn1nccc1C#Cc1nccc2cnc(Nc3ccc(S(C)(=O)=O)cc3)cc12` [Ex 637, 5-((1-methyl-1H-pyrazol-5-yl)ethynyl)-N-(4-(methylsulfonyl)phenyl)-2,6-naphthyridin-3-amine], the IC50 at CDK2/CCNE1 (setting [1]) was below 0.025 µM; at CDK1/CCNB1 (setting [2]), above 0.25 µM; at CDK4/CCND3 (setting [3]), above 0.25 µM; at CDK6/CCND1 (setting [4]), above 0.25 µM.

Turning to `CS(=O)(=O)c1ccc(Nc2cc3c(C#Cc4ccc5cn[nH]c5c4)nccc3cn2)cc1` [Ex 638, 5-((1H-indazol-6-yl)ethynyl)-N-(4-(methylsulfonyl)phenyl)-2,6-naphthyridin-3-amine], the IC50 at CDK2/CCNE1 (setting [1]) was below 0.025 µM; on CDK1/CCNB1 (setting [2]), above 0.25 µM; at CDK4/CCND3 (setting [6]), 0.025 to 0.25 µM; at CDK6/CCND1 (setting [4]), above 0.25 µM.

Take `CS(=O)(=O)c1ccc(Nc2cc3c(-c4ccc5nn(CCO)cc5c4)nccc3cn2)cc1` [Ex 639, 2-(5-(7-((4-(methylsulfonyl)phenyl)amino)-2,6-naphthyridin-1-yl)-2H-indazol-2-yl)ethan-1-ol]: the IC50 on CDK2/CCNE1 (setting [5]) is 0.025 to 0.25 µM; on CDK1/CCNB1 (setting [2]) it was above 0.25 µM; at CDK4/CCND3 (setting [3]), above 0.25 µM; on CDK6/CCND1 (setting [4]), above 0.25 µM.

Regarding `CNC(=O)Cn1ncc2c(C)c(-c3nccc4cnc(Nc5ccc(S(C)(=O)=O)cc5)cc34)ccc21` [Ex 640, N-methyl-2-(4-methyl-5-(7-((4-(methylsulfonyl)phenyl)amino)-2,6-naphthyridin-1-yl)-1H-indazol-1-yl)acetamide], the IC50 on CDK2/CCNE1 (setting [1]) was below 0.025 µM; on CDK1/CCNB1 (x = IC50 25-250 nM, read-out: CDK1/CCNB IC50 (25-250 nM)), 0.025 to 0.25 µM; at CDK4/CCND3 (setting [6]) it was 0.025 to 0.25 µM; on CDK6/CCND1 (x = IC50 25-250 nM, read-out: CDK6/CCND IC50 (25-250 nM)) it was 0.025 to 0.25 µM.

With `Cc1c(C#N)ccc(C#Cc2nccc3cnc(Nc4ccc(S(C)(=O)=O)cc4)cc23)c1C` [Ex 643, 2,3-dimethyl-4-((7-((4-(methylsulfonyl)phenyl)amino)-2,6-naphthyridin-1-yl)ethynyl)benzonitrile], the IC50 is 0.025 to 0.25 µM on CDK2/CCNE1 (setting [5]), above 0.25 µM on CDK1/CCNB1 (setting [2]), above 0.25 µM at CDK4/CCND3 (setting [3]) and above 0.25 µM on CDK6/CCND1 (setting [4]).

In the case of `CN1Cc2cc(-c3nccc4cnc(Nc5ccc(S(C)(=O)=O)cc5)cc34)ccc2CC1=O` [Ex 644, 2-methyl-7-(7-((4-(methylsulfonyl)phenyl)amino)-2,6-naphthyridin-1-yl)-1,4-dihydroisoquinolin-3(2H)-one], the IC50 was 0.025 to 0.25 µM at CDK2/CCNE1 (setting [5]), above 0.25 µM on CDK1/CCNB1 (setting [2]), above 0.25 µM on CDK4/CCND3 (setting [3]) and above 0.25 µM at CDK6/CCND1 (setting [4]).

For the molecule `CS(=O)(=O)c1ccc(Nc2cc3c(C#Cc4ccc5[nH]ncc5c4)nccc3cn2)cc1` [Ex 645, 5-((1H-indazol-5-yl)ethynyl)-N-(4-(methylsulfonyl)phenyl)-2,6-naphthyridin-3-amine], the IC50 was 0.025 to 0.25 µM on CDK2/CCNE1 (setting [5]), above 0.25 µM at CDK1/CCNB1 (setting [2]), above 0.25 µM on CDK4/CCND3 (setting [3]) and above 0.25 µM at CDK6/CCND1 (setting [4]).

Regarding `COc1ccc(C#Cc2nccc3cnc(Nc4ccc(S(C)(=O)=O)cc4)cc23)cn1` [Ex 646, 5-((6-methoxypyridin-3-yl)ethynyl)-N-(4-(methylsulfonyl)phenyl)-2,6-naphthyridin-3-amine], the IC50 was 0.025 to 0.25 µM on CDK2/CCNE1 (setting [5]), above 0.25 µM on CDK1/CCNB1 (setting [2]), above 0.25 µM on CDK4/CCND3 (setting [3]) and above 0.25 µM on CDK6/CCND1 (setting [4]).

As to `CS(=O)(=O)c1ccc(Nc2cc3c(C#Cc4ccc(C#N)cc4C(F)(F)F)nccc3cn2)cc1` [Ex 647, 4-((7-((4-(methylsulfonyl)phenyl)amino)-2,6-naphthyridin-1-yl)ethynyl)-3-(trifluoromethyl)benzonitrile], the IC50 on CDK2/CCNE1 (setting [1]) is below 0.025 µM; at CDK1/CCNB1 (setting [2]), above 0.25 µM; on CDK4/CCND3 (setting [3]), above 0.25 µM; at CDK6/CCND1 (setting [4]) it was above 0.25 µM.

Take `CS(=O)(=O)c1ccc(Nc2cc3c(C#Cc4ccc5nc[nH]c5c4)nccc3cn2)cc1` [Ex 648, 5-((1H-benzo[d]imidazol-6-yl)ethynyl)-N-(4-(methylsulfonyl)phenyl)-2,6-naphthyridin-3-amine]: the IC50 was below 0.025 µM at CDK2/CCNE1 (setting [1]), above 0.25 µM on CDK1/CCNB1 (setting [2]), above 0.25 µM on CDK4/CCND3 (setting [3]) and above 0.25 µM at CDK6/CCND1 (setting [4]).

`CS(=O)(=O)c1ccc(Nc2cc3c(-c4ccc5c(c4)CNC(=O)C5)nccc3cn2)cc1` [Ex 649, 7-(7-((4-(methylsulfonyl)phenyl)amino)-2,6-naphthyridin-1-yl)-1,4-dihydroisoquinolin-3(2H)-one]: the IC50 at CDK2/CCNE1 (setting [5]) was 0.025 to 0.25 µM; at CDK1/CCNB1 (setting [2]), above 0.25 µM; at CDK4/CCND3 (setting [3]), above 0.25 µM; on CDK6/CCND1 (setting [4]), above 0.25 µM.

`CS(=O)(=O)c1ccc(Nc2cc3c(C#Cc4ccc(C#N)c(F)c4)nccc3cn2)cc1` [Ex 650, 2-fluoro-4-((7-((4-(methylsulfonyl)phenyl)amino)-2,6-naphthyridin-1-yl)ethynyl)benzonitrile]: the IC50 at CDK2/CCNE1 (setting [5]) is 0.025 to 0.25 µM; at CDK1/CCNB1 (setting [2]), above 0.25 µM; at CDK4/CCND3 (setting [3]), above 0.25 µM; on CDK6/CCND1 (setting [4]) it was above 0.25 µM.

With `CS(=O)(=O)c1ccc(Nc2cc3c(C#Cc4ccc(C#N)c(F)c4F)nccc3cn2)cc1` [Ex 651, 2,3-difluoro-4-((7-((4-(methylsulfonyl)phenyl)amino)-2,6-naphthyridin-1-yl)ethynyl)benzonitrile], the IC50 is 0.025 to 0.25 µM at CDK2/CCNE1 (setting [5]), above 0.25 µM at CDK1/CCNB1 (setting [2]), above 0.25 µM at CDK4/CCND3 (setting [3]) and above 0.25 µM at CDK6/CCND1 (setting [4]).

Consider `CS(=O)(=O)c1ccc(Nc2cc3c(C#Cc4ccc(CCO)cc4)nccc3cn2)cc1` [Ex 652, 2-(4-((7-((4-(methylsulfonyl)phenyl)amino)-2,6-naphthyridin-1-yl)ethynyl)phenyl)ethan-1-ol], for which the IC50 at CDK2/CCNE1 (setting [1]) was below 0.025 µM; on CDK1/CCNB1 (setting [2]) it was above 0.25 µM; on CDK4/CCND3 (setting [3]) it was above 0.25 µM; at CDK6/CCND1 (setting [4]), above 0.25 µM.

As to `COC(=O)N1CCC(C#Cc2nccc3cnc(Nc4ccc(S(C)(=O)=O)cc4)cc23)CC1` [Ex 653, methyl 4-((7-((4-(methylsulfonyl)phenyl)amino)-2,6-naphthyridin-1-yl)ethynyl)piperidine-1-carboxylate], the IC50 on CDK2/CCNE1 (setting [5]) was 0.025 to 0.25 µM; on CDK1/CCNB1 (setting [2]), above 0.25 µM; at CDK4/CCND3 (setting [3]) it was above 0.25 µM; at CDK6/CCND1 (setting [4]), above 0.25 µM.

For the molecule `Cn1cc2c(Cl)c(-c3nccc4cnc(Nc5ccc(S(C)(=O)=O)cc5)cc34)ccc2n1` [Ex 655, 5-(4-chloro-2-methyl-2H-indazol-5-yl)-N-(4-(methylsulfonyl)phenyl)-2,6-naphthyridin-3-amine], the IC50 at CDK2/CCNE1 (setting [1]) is below 0.025 µM; at CDK1/CCNB1 (setting [2]), above 0.25 µM; at CDK4/CCND3 (setting [3]) it was above 0.25 µM; on CDK6/CCND1 (setting [4]), above 0.25 µM.
